Experiment [1] deals with circulating levels of luteinizing hormone (LH). Kind of experiment: Castrated male rat model, circulating levels of luteinizing hormone (LH). Type of experiment: in vivo. Conditions: castrated male SD rats, single intravenous dose (156 and 144: 10 mg/kg; 71: 15 mg/kg; 114: 20 mg/kg), 60 min post dosing (156 also 120 min), vs. baseline.
In experiment [2] the test system is circulating levels of testosterone. Briefly: Gonad-intact adult male rat, circulating levels of testosterone. The format is in vivo. The settings on record: gonad-intact male SD rats, single intravenous 20 mg/kg dose, over 420 min (AUC). As to the method: Plasma testosterone levels are represented as an integrated testosterone response (AUC) over a 420 min period following dosing. […] Membrane suspensions were prepared from these cells. The following radioligand: [^125I]-His-MePhe7-Neurokinin B (PerkinElmer Cat # NEX285) was used in this assay. Binding assays were performed in a […]/1 mM CaCl2/5 mM MgCl2/0.5% BSA/10 μg/ml Saponin, at pH 7.4. Binding assays consisted of 25 μl of membrane suspension (approximately 5 μg protein/well in a 96 well plate), 50 μl of compound or reference ligand (MePhe7-Neurokinin B) at increasing concentrations (diluted in assay buffer) and 0.09 nM [^125I]-His-MePhe7-Neurokinin B. The plate was incubated 60 min at 25° C. in a water bath and then filtered over GF/C filters (Perkin Elmer, 6005174, presoaked in assay buffer without saponine for 2 h at room temperature) with a Filtration unit (Perkin Elmer). The radioactivity retained on the filters was measured by using the TopCount-NXT reader (Packard). […]

In experiment [3] the target is human NK-3 receptor (Homo sapiens (Human), UniProt P29371). Kind of experiment: 3H-SB222200 binding competition assay with human NK-3 receptor. Conditions: 3H-SB222200 displacement, CHO cell membranes expressing human NK3 receptor; read-out: Ki range. Put shortly: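 Radioligand displacement: 5 nM tritiated SB222200 competed by varying compound concentrations on recombinant CHO membranes bearing human NK3, buffer pH 7.4 with HEPES, NaCl, CaCl2, MgCl2, BSA and saponin. Filter-bound radioactivity quantified; calculated Ki given as ranges from +++ (<500 nM) to # (>5 μM).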

Bounds are passed on as bounds.

human NK-3 receptor, sequence (P29371 whole entry): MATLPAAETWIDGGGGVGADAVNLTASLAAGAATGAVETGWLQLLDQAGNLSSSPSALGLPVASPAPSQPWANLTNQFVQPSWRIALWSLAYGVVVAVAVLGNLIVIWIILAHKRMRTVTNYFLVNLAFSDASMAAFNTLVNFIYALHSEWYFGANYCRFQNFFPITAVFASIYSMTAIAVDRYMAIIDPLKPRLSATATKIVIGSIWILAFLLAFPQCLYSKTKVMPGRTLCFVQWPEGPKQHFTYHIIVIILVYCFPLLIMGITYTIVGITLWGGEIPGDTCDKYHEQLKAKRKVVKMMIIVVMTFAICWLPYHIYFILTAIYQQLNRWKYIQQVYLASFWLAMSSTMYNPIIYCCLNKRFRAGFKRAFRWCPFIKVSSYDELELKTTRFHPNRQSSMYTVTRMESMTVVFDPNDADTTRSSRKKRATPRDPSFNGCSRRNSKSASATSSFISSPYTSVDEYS

As to `C[C@@H]1c2nnc(-c3csc(-c4ccc(F)cc4F)n3)n2CCN1C(=O)c1ccc(-c2cccs2)cc1` [Compound 156, (R)-(3-(2-(2,4-difluorophenyl)thiazol-4-yl)-8-methyl-5,6-dihydro-[1,2,4]triazolo[4,3-a]pyrazin-7(8H)-yl)(4-(thiophen-2-yl)phenyl)methanone], the “effect on LH serum levels” value in experiment [1] is on record as “significantly suppressed GnRH-mediated elevation of LH”. Moreover, the “effect on plasma testosterone levels” value in experiment [2] is given as “significantly suppressed plasma testosterone levels”. In addition, the Ki in experiment [3] is below 0.5 µM.

The values above are taken from patent publication US10544150B2, “NK-3 receptor selective antagonist compounds, pharmaceutical composition and methods for use in NK-3 receptors mediated disorders” (Ogeda SA, priority 2010, dated 2020).
